In patent US10889572B2, “Reactive oxygen species scavengers and use for treating diseases” (XW LABORATORIES INC., priority 2017, dated 2021):
Structures can show the parent of a compound that is named as a salt.

Tested on: HT-1080 (fibrosarcoma) cells
Assay: Primary screening by ferroptosis assay (Erastin-induced, cell viability, CellTiter-Glo)
Assay type: cell-based
Conditions: HT-1080 cells, 30 hours, % remaining activity, read-out: EC50, Inhibition for Ferroptosis in HT-1080 Cell
Experimental: Cell Lines and Media: HT-1080 (fibrosarcoma) cells were obtained from American Type Culture Collection. Cells were grown in EMEM media, 10% Heat-Inactivated FBS, and penicillin-streptomycin mix (Invitrogen). Cells were maintained at 37° C. and 5% CO2 in a tissue culture incubator.
Cell Viability Assay: Seed 10,000 cell/well of HT-1080 cells with 195 μL growth media in black and clear bottom 96-well plates (Cat #Corning 3904) and allow cells to adhere overnight. The next day, dilute test compound by 2-fold dilution into 12 points with medium containing 400 μM Erastin. Transfer 5 μL of compounds solution into growth medium in triplicated wells. 30 hours later, add Cell Titer-Glo® Luminescent cell viability assay reagent (Cat #, Promega G8081) to measure HT-1080 cell viability according to the manufacture protocol. Briefly, aspirate 100 μL medium, and add 50 μL CellTiter-Glo® Luminescent reagent to each well and incubated for 30 minutes at room temperature to stabilize the Luminescent signal. Seal the plates and centrifuged for 1 minute at 1,000 rpm to remove bubbles. Shake the plates for 1 minute on an orbital shaker. Read the plate to detect Luminescent signal with EnSpire Multimode Plate Reader (PerkinElmer). The remaining activity % is used to evaluate Erastin induced ferroptosis in HT-1080 cells and expressed as the following formula: % Remaining Activity−100×[(Sample−Backgroundavg)/(Vehicle−Background avg)]
Sample: Readout from the test compound
Vehicle: Readout from the vehicle sample
Background: Readout from the Erastin only treatment
Dose response curve is graphed by using the non-linear regression analysis (formula equation 201) in XLFit (Excel add-in software) for the average % remaining activity from triplicates, and the EC50 values is then calculated. In this anti-ferroptosis assay, ferrostatin-1, and XJB-5-131 are included as reference. The acceptance criteria were set based on historical result, mean±2.58*SD in logarithmic scale, meanwhile Z′>0.5.

Q: Which EC50 does the source give for `CC(C)C[C@@H](/C=C/[C@H](Cc1ccccc1)C(=O)N1CCC[C@H]1C(=O)N[C@H](C(=O)N[C@@H](CCCNC(=O)OCc1ccccc1)C(=O)NC1CC(C)(C)N([O])C(C)(C)C1)C(C)C)NC(=O)OC1CC(C)(C)N([O])C(C)(C)C1` [Example VIII, 1-Oxyl-2,2,6,6-tetramethylpiperidin-4-yl N-[(4S,5E,7S)-7-benzyl-8-[(2S)—2-{[(1S)—1-{[(1S)—4-{[(benzyloxy)carbonyl]amino}-1-[(1-oxyl-2,2,6,6-tetramethylpiperidin-4-yl)carbamoyl]butyl]carbamoyl}-2-methylpropyl]carbamoyl}pyrrolidin-1-yl]-2-methyl-8-oxooct-5-en-4-yl]carbamate] here?
A: 266 nM

Q: For `CC(C)C[C@@H](/C=C/[C@H](Cc1ccccc1)C(=O)N1CCC[C@H]1C(=O)N[C@@H](CCCNC(=O)OC(C)(C)C)C(=O)NC1CC(C)(C)N([O])C(C)(C)C1)NC(=O)OC(C)(C)C` [Example XX, tert-Butyl N-(4-{[(2S)-1-[(2R,3E,5S)-2-benzyl-5-{[(tert-butoxy)carbonyl]amino}-7-methyloct-3-enoyl]pyrrolidin-2-yl]formamido}-4-[(1-oxyl-2,2,6,6-tetramethylpiperidin-4-yl)carbamoyl]butyl)carbamate], which EC50 is on record?
A: 532 nM

Same assay, conditions: Homo sapiens, HT-1080, 30 h, HT-1080 cells, % remaining activity, read-out: EC50, Inhibition for Ferroptosis in HT-1080 Cell

Q: `CC(C)C[C@@H](/C=C/C(Cc1ccccc1)C(=O)N1CCC[C@H]1C(=O)N[C@H](C(=O)N[C@@H](CCCNC(=O)OCc1ccccc1)C(=O)NC1CC(C)(C)N(O)C(C)(C)C1)C1CC1)NC(=O)OC(C)(C)C` (stereo in doubt) [Example XII, Benzyl N-[(4S)-4-[(2S)—2-{[(2S)-1-[(2R,3E,5S)-2-benzyl-5-{[(tert-butoxy)carbonyl]amino}-7-methyloct-3-enoyl]pyrrolidin-2-yl]formamido}-2-cyclopropylacetamido]-4-[(1-hydroxy-2,2,6,6-tetramethylpiperidin-4-yl)carbamoyl]butyl]carbamate] was tested. Which EC50 did it give?
A: 481 nM

Q: With `CC(C)C[C@@H](/C=C/[C@H](Cc1ccccc1)C(=O)N1CCCC1C(=O)N[C@@H](CCCCNC(=O)OC1CC(C)(C)N(O)C(C)(C)C1)C(=O)OC1CCCCC1)NC(=O)OC(C)(C)C` (stereo in doubt) [Example XXXXVI, (S)—Cyclohexyl 2-((R)-1-((2S,5S,E)-2-benzyl-5-((tert-butoxycarbonyl)amino)-7-methyloct-3-enoyl)pyrrolidine-2-carboxamido)-6-((((1-hydroxy-2,2,6,6-tetramethylpiperidin-4-yl)oxy)carbonyl)amino)hexanoate] as the molecule, how does the EC50 read?
A: 66.3 nM

Q: Which EC50 does the source give for `CC(C)C[C@@H](/C=C/[C@H](Cc1ccccc1)C(=O)N1CCC[C@@H]1C(=O)NC1CC(C)(C)N(O)C(C)(C)C1)NC(=O)OC(C)(C)C` [Example VI, tert-Butyl N-[(4S,5E,7S)-7-benzyl-8-[(2R)-2-[(1-hydroxy-2,2,6,6-tetramethylpiperidin-4-yl)carbamoyl]pyrrolidin-1-yl]-2-methyl-8-oxooct-5-en-4-yl]carbamate] here?
A: 1020 nM

Q: `CC(C)C[C@@H](/C=C/[C@H](Cc1ccccc1)C(=O)N1CCC[C@H]1C(=O)N1CCC[C@H]1C(=O)N[C@@H](CCCNC(=O)OCc1ccccc1)C(=O)NC1CC(C)(C)N(O)C(C)(C)C1)NC(=O)OC(C)(C)C` [Example XI, Benzyl N-[(4S)-4-1-{[(2S)-1-[(2S)-1-[(2R,3E,5S)-2-benzyl-5-{[(tert-butoxy)carbonyl]amino}-7-methyloct-3-enoyl]pyrrolidine-2-carbonyl]pyrrolidin-2-yl]formamido}-4-[(1-hydroxy-2,2,6,6-tetramethylpiperidin-4-yl)carbamoyl]butyl]carbamate] was tested. Which EC50 did it give?
A: 526 nM

Q: With `CC(C)C[C@H](N)/C=C/[C@H](Cc1ccccc1)C(=O)N1CCC[C@H]1C(=O)N[C@H](CCCNC(=O)OCc1ccccc1)C(=O)NC1CC(C)(C)N(O)C(C)(C)C1` [Example XIII, Benzyl N-[(4R)—4-{[(2S)-1-[(2S,3E,5S)-5-amino-2-benzyl-7-methyloct-3-enoyl]pyrrolidin-2-yl]formamido}-4-[(1-hydroxy-2,2,6,6-tetramethyl-piperidin-4-yl)carbamoyl]butyl]carbamate dihydrochloride] as the molecule, how does the EC50 read?
A: 262 nM

Q: How did the EC50 turn out when `CC(C)C[C@@H](/C=C/[C@H](Cc1ccccc1)C(=O)N1CCC[C@H]1C(=O)N[C@@H](C)C(=O)N[C@@H](CCCNC(=O)OCc1ccccc1)C(=O)NC1CC(C)(C)N(O)C(C)(C)C1)NC(=O)OC(C)(C)C` [Example XIV, Benzyl N-[(4S)-4-[(2S)—2-{[(2S)-1-[(2S,3E,5S)-2-benzyl-5-{[(tert-butoxy)carbonyl]amino}-7-methyloct-3-enoyl]pyrrolidin-2-yl]formamido}propanamido]-4-[(1-hydroxy-2,2,6,6-tetramethylpiperidin-4-yl)carbamoyl]butyl]carbamate] was run?
A: 515 nM

Q: Which EC50 does the source give for `CC(C)C[C@@H](/C=C/[C@H](Cc1ccccc1)C(=O)N1CCC[C@H]1C(=O)N[C@@H](Cc1ccc(O)cc1)C(=O)NC1CC(C)(C)N(O)C(C)(C)C1)NC(=O)OC(C)(C)C` [Example XVI, tert-Butyl N-[(4S,5E,7S)-7-benzyl-8-[(2S)—2-{[(1S)-1-[(1-hydroxy-2,2,6,6-tetramethylpiperidin-4-yl)carbamoyl]-2-(4-hydroxyphenyl)ethyl]carbamoyl}pyrrolidin-1-yl]-2-methyl-8-oxooct-5-en-4-yl]carbamate] here?
A: 536 nM

Q: With `CC(C)C[C@@H](/C=C/[C@H](Cc1ccccc1)C(=O)N1CCC[C@@H]1C(=O)N[C@@H](CCCNC(=O)OCc1ccccc1)C(=O)NC1CC(C)(C)N(O)C(C)(C)C1)NC(=O)OC(C)(C)C` [Example XVII, Benzyl N-[(4S)—4-{[(2R)-1-[(2S,3E,5S)-2-benzyl-5-{[(tert-butoxy)carbonyl]amino}-7-methyloct-3-enoyl]pyrrolidin-2-yl]formamido}-4-[(1-hydroxy-2,2,6,6-tetramethylpiperidin-4-yl)carbamoyl]butyl]carbamate] as the molecule, how does the EC50 read?
A: 284 nM

Q: How did the EC50 turn out when `COC(=O)[C@H](CCCNC(=O)OC1CC(C)(C)N(O)C(C)(C)C1)NC(=O)[C@@H]1CCCN1C(=O)[C@H](/C=C/[C@H](CC(C)C)NC(=O)OC(C)(C)C)Cc1ccccc1` [Example XVIII] was run?
A: 86 nM

Q: `Cc1cc(O)cc(C)c1CNC(=O)[C@H](CCCNC(=O)OCc1ccccc1)NC(=O)[C@@H]1CCCN1C(=O)[C@H](/C=C/[C@H](CC(C)C)NC(=O)OC(C)(C)C)Cc1ccccc1` [Example XXIV, Benzyl N-[(4S)—4-{[(2S)-1-[(2S,3E,5S)-2-benzyl-5-{ [(tert-butoxy)carbonyl]amino}-7-methyloct-3-enoyl]pyrrolidin-2-yl]formamido}-4-{[(4-hydroxy-2,6-dimethylphenyl)methyl]carbamoyl}butyl]carbamate] was tested. Which EC50 did it give?
A: > 4000 nM

Q: `CC(C)C[C@@H](/C=C/[C@H](Cc1ccccc1)C(=O)N1CCC[C@H]1C(=O)N[C@H](C(=O)N[C@@H](CCCNC(=O)OCc1ccccc1)C(=O)NC1CC(C)(C)N(O)C(C)(C)C1)C(C)C)NC(=O)OC1CC(C)(C)N(O)C(C)(C)C1` [Example XXV, 1-Hydroxy-2,2,6,6-tetramethylpiperidin-4-yl N-[(4S,5E,7S)-7-benzyl-8-[(2S)—2-{[(1S)—1-{[(1S)—4-{[(benzyloxy)carbonyl]amino}-1-[(1-hydroxy-2,2,6,6-tetramethylpiperidin-4-yl)carbamoyl]butyl]carbamoyl}-2-methylpropyl]carbamoyl}pyrrolidin-1-yl]-2-methyl-8-oxooct-5-en-4-yl]carbamate dihydrochloride] was tested. Which EC50 did it give?
A: 255 nM

Same assay, conditions: Homo sapiens, HT-1080 cells, 30 hours, % remaining activity, read-out: EC50, Inhibition for Ferroptosis in HT-1080 Cell

Q: `CC(C)C[C@H](N)/C=C/[C@H](Cc1ccccc1)C(=O)N1CCC[C@H]1C(=O)N[C@H](C(=O)N[C@@H](CCCNC(=O)OCc1ccccc1)C(=O)NC1CC(C)(C)N(O)C(C)(C)C1)C(C)C` [Example XV, Benzyl N-[(4S)-4-[(2S)—2-{[(2S)-1-[(2S,3E,5S)-5-amino-2-benzyl-7-methyloct-3-enoyl]pyrrolidin-2-yl]formamido}-3-methylbutanamido]-4-[(1-hydroxy-2,2,6,6-tetramethylpiperidin-4-yl)carbamoyl]butyl]carbamate trifluoroacetic acid salt] was tested. Which EC50 did it give?
A: 2230 nM

Q: With `CC(C)C[C@@H](/C=C/[C@H](Cc1ccccc1)C(=O)N1CCC[C@@H]1C(=O)N[C@@H](CCCNC(=O)OC(C)(C)C)C(=O)NC1CC(C)(C)N(O)C(C)(C)C1)NC(=O)OC(C)(C)C` [Example XXI, tert-Butyl N-[(4S,5E,7S)-7-benzyl-8-[(2R)—2-{[(1S)—4-{[(tert-butoxy)carbonyl]amino}-1-[(1-hydroxy-2,2,6,6-tetramethylpiperidin-4-yl)carbamoyl]butyl]carbamoyl}pyrrolidin-1-yl]-2-methyl-8-oxooct-5-en-4-yl]carbamate] as the molecule, how does the EC50 read?
A: 257 nM
